Assays:
[1] = test system: T antigen; assay: Antisense inhibition of T antigen expression in CV-1 cells with ODN2A (Example 19); format: cell-based, African green monkey
Protocol: ODN2A, which was ODN2 lacking the fluorescent label at the 3' terminus, was used as an antisense oligonucleotide to inhibit T antigen expression in CV-1 cells using the protocol previously described (Wagner Science (1993) 260:1510-1513). CV-1 cells were transfected for 18 hours using 5 μg of 34 (1:1 molar ratio with DOPE colipid) and then cell nuclei were microinjected with T antigen plasmid using a needle concentration of 0.003 μg/mL of T antigen plasmid (ibid at page 1513, first column, note 5) and 0.025 μg/mL of β-galactosidase plasmid. The cells were scored for T antigen expression 4.5 hours after removing the transfection preparation from the cells. The cells were immunostained for β-galactosidase expression as an internal control for microinjected cells and the proportion of cells expressing both T antigen and β-galactosidase was determined.

[2] = Transfection of Caov-3 cells with ODN1 using 34 (Example 12); format: cell-based, human; details: human, caov-3 cells; Caov-3, 10.0 μg lipid; read-out: toxicity
Protocol: (§1) Preparation of lipid-nucleic acid complexes and cell transfection.
(§2) SK-BR-3, Caco-2, Caov-3 and MCF7 cells were transfected with ODN1 using 34 which was prepared as described in Example 5 using a 1:1 molar ratio of DOPE colipid. The sonicated lipid-colipid mixture (1 mL of a 2.5, 5 or 10 μg/mL suspension) was mixed with 250 pmole ODN1 and allowed to stand […] at room temperature […] before adding 1 mL of the lipid-ODN1 complex to the cells. The lipid-ODN1 complex was removed from the cells after 6 hours by washing the cells twice in PBS, followed by observing the cells in serum-containing medium immediately after removing the lipid-ODN1 complex.

[3] = test system: Caov-3 cells; assay: as above; format: cell-based, human; details: 6 h, 1:1 DOPE
Protocol: as §1, §2

[4] = Transfection of Caco-2 cells with ODN1 using 34 (Example 12); format: cell-based, human; details: human, caco-2 cells; Caco-2, 5.0 μg lipid; read-out: toxicity
Protocol: as §1, §2

[5] = test system: Caco-2 cells; assay: as above; format: cell-based, human; details: 6 h, 1:1 DOPE
Protocol: as §1, §2

[6] = test system: SK-BR-3 cells; assay: Transfection of SK-BR-3 cells with ODN1 using 34 (Example 12); format: cell-based, human; details: 6 h, 1:1 DOPE
Protocol: as §1, §2

[7] = test system: cells; assay: Amount of fluorescently labeled oligonucleotide delivered versus commercially available lipids; format: cell-based; details: observed fluorescence intensity, estimated
From the text: The difference in transfection efficiency between lipids described herein and commercially available lipids is usually most pronounced when the transfections are done in the presence of medium containing serum. The amount of polyanion delivered into cells was estimated to be about 2- to 100-fold greater for lipids 30, 34 and 35 based on the observed fluorescence intensity of transfected cells after transfection using a fluorescently labeled oligonucleotide. The cationic lipids described herein also transfect some cell types that are not detectably transfected by commercial lipids, particularly where the transfection is conducted in the presence of serum.

[8] = test system: MCF7 cells; assay: Transfection of MCF7 cells with ODN1 using 34 (Example 12); format: cell-based, human; details: 6 h, 1:1 DOPE
Protocol: as §1, §2

[9] = test system: cells; assay: Transfection with filtered preparations; format: cell-based; details: 1:1 DOPE, sonicated
Protocol: The invention cationic lipids 30 or 34 and DOPE colipid (1:1) were prepared by sonication and then filtered using 200, 100 or 50 nm filters to obtain particles less than about 200 nm in diameter, less than about 100 nm and less than about 50 nm. […] The 50 nm filtered preparations were about 40-50% as efficient as the preparations containing larger particles. The size of the particles or miscelles in a given preparation will vary depending on the preparation method. Sonicating cationic lipid-colipid mixtures will provide smaller miscelles and vortexing will provide larger miscelles (Felgner J. Biol. Chem. (1994) 269:2550-2561). Such miscelles are believed to transfer the polyanion into the cytoplasm of a eukaryotic or prokaryotic cell by pinocytosis, endocytosis and/or by direct fusion with the plasma membrane.

[10] = test system: CV-1 cells; assay: Transfection of CV-1 cells with CAT RNA (Example 16); format: cell-based, African green monkey; details: 2.5 μg RNA, 5 μg lipid, 24 h, DMEM 10% FBS or Optimem
Protocol: CV-1 cells were transfected for 24 hours with RNA encoding chloramphenicol acetyltransferase (CAT). The transfections used 2.5 μg of RNA, 5 μg of 34 and DMEM with 10% FBS or Optimem™ with no serum. CAT activity was measured by immunofluorescence staining using fluorescent labeled anti-CATantibodies (5',3'Inc.). The cells were observed as previously described (Wagner, Science (1993) 260:1510).

[11] = test system: CV-1 cells; assay: Transfection of CV-1 cells with ODN1 and toxicity (Example 22); format: cell-based, African green monkey; details: for % cells transfected: 2:1 DOPE, 6 h, 10% FBS, 250 pmole ODN1
Protocol: (§3) Lipids 35, 52, 54 and 55 were each prepared using a 2:1 lipid:DOPE molar ratio as follows. Two molar equivalents of each lipid in CHCl3 and one equivalent of DOPE in CHCl3 was dried under reduced pressure by rotovap at room temperature. Deionized water was then added to give 1 mg/mL of total lipid. 10 mL of water containing 10 mg of lipid was vortexed for 5 minutes in a 100 mL round bottom flask. 2 mL aliquots were then used to prepare lipid suspensions for complexing with ODN1. Each preparation was obtained by 6 cycles of freezing on dry ice and thawing in a 37° C. water bath.

[12] = as above; format: cell-based, African green monkey; details: monkey, cv-1 cells; 10.0 μg lipid
Protocol: as §3

[13] = test system: CV-1 cells; assay: Transfection of CV-1 cells with five 35:DOPE preparations (Example 20); format: cell-based, African green monkey; details: 35:DOPE 2:1, 1 μg lipid, 6 h, 10% FBS; in words
Protocol: Lipid complexes consisting of 35:DOPE (2:1 molar ratio) were prepared as follows. Two molar equivalents of 35 in CHCl3 and one equivalent of DOPE in CHCl3 was dried under reduced pressure by rotovap at room temperature. Deionized water was then added to give 1 mg/mL of total lipid. 10 mL of water containing 10 mg of lipid was vortexed for 5 minutes in a 100 mL round bottom flask. 2 mL aliquots were then used to prepare lipid suspensions for complexing with ODN1. The first preparation was obtained by directly using the vortexed 2 mL aliquot to prepare complexes with ODN1. The second preparation was obtained by 6 cycles of freezing on dry ice and thawing in a 37° C. water bath (Baxter, Dura Bath). The third preparation was obtained by placing a culture tube containing the lipid into a Ultra Sonik 100 (NEY) sonicator and the preparation was sonicated for 30 minutes at room temperature using the probe tip at maximum power. The fourth preparation was obtained by 6 cycles of freezing on dry ice and thawing in a 37° C. water bath, followed by filtering the suspension through a Lipofast™ 100 nm filter according to the manufacturer's instructions to obtain complexes less than about 100 nm in diameter. The fifth preparation was obtained by sonication for 10 minutes in a sonication bath followed by 5 sonication pulses for 15 seconds each with a probe sonicator (Sonifier 250, Branson Ultrasonics). […]

[14] = test system: cdc-2 kinase; assay: cdc-2 antisense oligonucleotide analog transfection, Western blot (Example 22); format: cell-based, African green monkey; details: 30 nM cdc-2 antisense oligonucleotide analog, 2.5 and 5.0 μg lipid
From the text: The oligonucleotide contained 5-(1-propynyl)cytosine in place of cytosine and 5-(1-propynyl)uracil in place of uracil. A control oligonucleotide analog having a mismatched base sequence was also used to check for any non-specific effect on cdc-2 kinase levels in the transfected cells caused by the oligonucleotide analog. A control containing only lipid was also used as a control. […] Protein levels were examined by Western blot analysis.

## CCCCCCCCCCCCCCCCCCN(CCCCCCCCCCCCCCCCCC)C(=O)CNC(=O)[C@@H](N)CCCNC(=N)NC(=O)OC(C)(C)C [Compound 34]
[1]; 5 μg, 1:1 DOPE, 18 h, ODN2A needed to inhibit T antigen expression to an equal extent
  efficiency in delivering ODN2A into cells compared with Lipofectin: about 10 fold
[1]; in words
  delivery of antisense oligomer: efficiently delivered the antisense oligomer into the cells without interfering with the capacity of the oligonucleotide to inhibit gene (protein) expression
[2]
  cytotoxicity at 6 h: < 10%
[3]; Caov-3, 2.5 μg lipid
  % transfected: 20%
[3]; Caov-3, 5.0 μg lipid
  % transfected: 20%
[3]; Caov-3, 10.0 μg lipid
  % transfected: 61%
[4]
  cytotoxicity at 6 h: < 10%
[5]; Caco-2, 2.5 μg lipid
  % transfected: < 5%
[5]; Caco-2, 5.0 μg lipid
  % transfected: 10-15%
[5]; Caco-2, 10.0 μg lipid
  % transfected: 0%
[6]; SK-BR-3, 2.5 μg lipid
  % transfected: 60-70%
[6]; SK-BR-3, 5.0 μg lipid
  % transfected: > 90%
[6]; SK-BR-3, 10.0 μg lipid
  % transfected: > 90%
[7]
  amount of polyanion delivered into cells relative to commercially available lipids: 2- to 100 fold
[8]; MCF7, 2.5 μg lipid
  % transfected: 30-50%
[8]; MCF7, 5.0 μg lipid
  % transfected: 83%
[8]; MCF7, 10.0 μg lipid
  % transfected: 80%
[9]; 50 nm filter
  transfection efficiency of 50 nm filtered preparations relative to larger particles: 40-50%
[9]; in words
  transfection efficiency of 200 nm or 100 nm filtered preparations: the most efficient (and equally efficient)
[10]
  cells expressing CAT: 1-2%

## CCCCCCCCCCCCCCN(CCCCCCCCCCCCCC)C(=O)CNC(=O)[C@@H](N)CCCNC(=N)NC(=O)OC(C)(C)C [Compound 35]
[11]; 1 μg lipid
  % cells transfected: 40%
[11]; 2.5 μg lipid
  % cells transfected: 85%
[11]; 5.0 μg lipid
  % cells transfected: 100%
[11]; 10.0 μg lipid
  % cells transfected: 60%
[11]; footnote, in words
  uniformity of cell staining: relatively uniformly stained
[12]
  cytotoxicity at 6 h: > 40%
[13]
  transfection of CV-1 cells, all preparations: efficiently transfected CV-1 cells
[14]
  cdc-2 protein levels: efficiently reduced cdc-2 protein levels
[7]
  amount of polyanion delivered into cells relative to commercially available lipids: 2- to 100 fold

— patent US5705693A, “Cationic lipids” (Gilead Sciences, Inc., priority 1995, dated 1998)
